Structures can show the parent of a compound that is named as a salt. Where two headings read alike, the source gives them in different places.
Tested on: compound-treated mice
Assay: Neuropharmacological assay (SmartCube): behavioral activity signature and minimal effective dose
Assay type: in vivo
Details: for minimal effective dose: Mus musculus, ip; for AD: ADHD (probability of activity signature) / AG: analgesic (probability of activity signature) / AX: anxiolytic (probability of activity signature) / CE: cognitive enhancer (probability of activity signature) / DP: anti-depressant (probability of activity signature) / MS: mood stabilizer (probability of activity signature) / PS: anti-psychotic (probability of activity signature) / SD: sedative hypnotic (probability of activity signature) / UN: uncharacterized CNS activity (probability of activity signature): i.p. 15 min before test, most efficacious dose(s)
How it was run: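 Mice dosed i.p. 15 min before test, compound in N-methyl-2-pyrrolidone/PEG/propylene glycol, 3 doses; video-captured behavior matched to reference-drug signatures, giving per-class probabilities at most efficacious dose. MED from doses typically 0.3–30 mpk, defined as lowest dose with ≥50% total activity.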

[1] = MED = dose having 50% or more total activity, read-out: Potency: minimal effective dose (MED), binned
[2] = MED = dose having 50% or more total activity, read-out: Potency: minimal effective dose (MED)

SMILES | minimal effective dose [1] [mg/kg] | AD: ADHD (probability of activity signature) | AG: analgesic (probability of activity signature) | AX: anxiolytic (probability of activity signature) | CE: cognitive enhancer (probability of activity signature) | DP: anti-depressant (probability of activity signature) | MS: mood stabilizer (probability of activity signature) | PS: anti-psychotic (probability of activity signature) | SD: sedative hypnotic (probability of activity signature) | UN: uncharacterized CNS activity (probability of activity signature) | minimal effective dose [2] [mg/kg] | Potency: minimal effective dose (MED), binned (MED = dose having 50% or more total activity, hydrochloride) | MS: mood stabilizer (probability of activity signature) (hydrochloride) | SD: sedative hypnotic (probability of activity signature) (hydrochloride)
CC[C@H]1OCc2ccc(F)cc2[C@@H]1N.Cl [Example 202] | < 3 | + (LOQ ≤ + <5%) | ++ (5% ≤ ++ <25%) | +++ (25% ≤ +++ <50%) | ++ (5% ≤ ++ <25%) | ++ (5% ≤ ++ <25%) | + (LOQ ≤ + <5%) | ++ (5% ≤ ++ <25%) | + (LOQ ≤ + <5%) | ++++ (50% ≤ ++++) |  |  |  | 
CN[C@H]1COCc2ccc(Cl)c(Cl)c21 [Example 148] |  | + (LOQ ≤ + <5%) | ++ (5% ≤ ++ <25%) | ++ (5% ≤ ++ <25%) | ++ (5% ≤ ++ <25%) | ++ (5% ≤ ++ <25%) | ++ (5% ≤ ++ <25%) | ++ (5% ≤ ++ <25%) | ++ (5% ≤ ++ <25%) | +++ (25% ≤ +++ <50%) | 3 to 10 |  |  | 
Cc1ccc2c(c1)CO[C@@H](C)[C@@H]2N [Example 253] | 3 to 10 | + (LOQ ≤ + <5%) | + (LOQ ≤ + <5%) | + (LOQ ≤ + <5%) | + (LOQ ≤ + <5%) | ++ (5% ≤ ++ <25%) | ++ (5% ≤ ++ <25%) | ++ (5% ≤ ++ <25%) | ++ (5% ≤ ++ <25%) | ++ (5% ≤ ++ <25%) |  |  |  | 
CN[C@H]1COCc2ccc(C)c(C)c21 [Example 144] |  | + (LOQ ≤ + <5%) | ++ (5% ≤ ++ <25%) | ++ (5% ≤ ++ <25%) | ++ (5% ≤ ++ <25%) | ++ (5% ≤ ++ <25%) | + (LOQ ≤ + <5%) | ++ (5% ≤ ++ <25%) | ++ (5% ≤ ++ <25%) | +++ (25% ≤ +++ <50%) | 3 to 10 |  |  | 
Cc1cc2c(cc1C)[C@H](N)[C@@H](C)OC2.Cl [Example 238] | 10 to 30 | + (LOQ ≤ + <5%) | + (LOQ ≤ + <5%) | ++ (5% ≤ ++ <25%) | ++ (5% ≤ ++ <25%) | + (LOQ ≤ + <5%) | + (LOQ ≤ + <5%) | ++ (5% ≤ ++ <25%) | + (LOQ ≤ + <5%) | ++++ (50% ≤ ++++) |  |  |  | 
CC(C)[C@@H]1OCc2ccccc2[C@@H]1N (relative stereo) [Example 256, cis-3-Isopropylisochroman-4-amine hydrochloride] | 3 to 10 | ++ (5% ≤ ++ <25%) | + (LOQ ≤ + <5%) | ++ (5% ≤ ++ <25%) | + (LOQ ≤ + <5%) | + (LOQ ≤ + <5%) | ++ (5% ≤ ++ <25%) | +++ (25% ≤ +++ <50%) | ++ (5% ≤ ++ <25%) | ++ (5% ≤ ++ <25%) |  |  |  | 
CC[C@H]1OCc2ccccc2[C@@H]1N(C)C.Cl (single isomer, unassigned) [Example 261] | 10 to 30 | ++ (5% ≤ ++ <25%) | + (LOQ ≤ + <5%) | + (LOQ ≤ + <5%) | + (LOQ ≤ + <5%) | ++++ (50% ≤ ++++) | + (LOQ ≤ + <5%) | + (LOQ ≤ + <5%) | ++ (5% ≤ ++ <25%) | ++ (5% ≤ ++ <25%) |  |  |  | 
COc1cccc2c1[C@H](N)[C@@H](C)OC2.Cl [Example 231] | 10 to 30 | + (LOQ ≤ + <5%) | ++ (5% ≤ ++ <25%) | ++ (5% ≤ ++ <25%) | ++ (5% ≤ ++ <25%) | ++ (5% ≤ ++ <25%) | + (LOQ ≤ + <5%) | + (LOQ ≤ + <5%) | + (LOQ ≤ + <5%) | +++ (25% ≤ +++ <50%) |  |  |  | 
Cc1ccc(Cl)c2c1[C@H](N)[C@@H](C)OC2.Cl [Example 200] | 3 to 10 | + (LOQ ≤ + <5%) | ++ (5% ≤ ++ <25%) | +++ (25% ≤ +++ <50%) | ++ (5% ≤ ++ <25%) | ++ (5% ≤ ++ <25%) | + (LOQ ≤ + <5%) | ++ (5% ≤ ++ <25%) | + (LOQ ≤ + <5%) | ++++ (50% ≤ ++++) |  |  |  | 
COc1ccc2c(c1)[C@@H](N)[C@@H](C)OC2 (single isomer, unassigned) [Example 174] | 3 to 10 | + (LOQ ≤ + <5%) | ++ (5% ≤ ++ <25%) | ++ (5% ≤ ++ <25%) | ++ (5% ≤ ++ <25%) | ++ (5% ≤ ++ <25%) | + (LOQ ≤ + <5%) | ++ (5% ≤ ++ <25%) | + (LOQ ≤ + <5%) | ++++ (50% ≤ ++++) |  |  |  | 
Cl.NC1COCc2cccc(Cl)c21 (stereo not drawn) [Example 28] |  | + (LOQ ≤ + <5%) | ++ (5% ≤ ++ <25%) | ++ (5% ≤ ++ <25%) | ++ (5% ≤ ++ <25%) | ++ (5% ≤ ++ <25%) | + (LOQ ≤ + <5%) | ++ (5% ≤ ++ <25%) | + (LOQ ≤ + <5%) | +++ (25% ≤ +++ <50%) | 3 to 10 |  |  | 
CC(C)(C)c1ccc2c(c1)C(N)COC2.Cl (stereo not drawn) [Example 11] |  | + (LOQ ≤ + <5%) | + (LOQ ≤ + <5%) | + (LOQ ≤ + <5%) | ++ (5% ≤ ++ <25%) | ++ (5% ≤ ++ <25%) | + (LOQ ≤ + <5%) | + (LOQ ≤ + <5%) | ++ (5% ≤ ++ <25%) | + (LOQ ≤ + <5%) | 10 to 30 |  |  | 
CC[C@@H]1OCc2ccc(F)cc2[C@@H]1N [Example 187] | < 3 | + (LOQ ≤ + <5%) | ++ (5% ≤ ++ <25%) | ++ (5% ≤ ++ <25%) | ++ (5% ≤ ++ <25%) | + (LOQ ≤ + <5%) | + (LOQ ≤ + <5%) | +++ (25% ≤ +++ <50%) | + (LOQ ≤ + <5%) | ++++ (50% ≤ ++++) |  |  |  | 
COc1ccc2c(c1)C(N)COC2.Cl (stereo not drawn) [Example 10, 6-Methoxyisochroman-4-amine hydrochloride] |  | + (LOQ ≤ + <5%) | ++ (5% ≤ ++ <25%) | ++ (5% ≤ ++ <25%) | +++ (25% ≤ +++ <50%) | ++ (5% ≤ ++ <25%) | + (LOQ ≤ + <5%) | +++ (25% ≤ +++ <50%) | ++ (5% ≤ ++ <25%) | ++ (5% ≤ ++ <25%) | 3 to 10 |  |  | 
CC(C)[C@@H]1OCc2ccccc2[C@H]1N.Cl (relative stereo) [Example 274, trans-3-Isopropylisochroman-4-amine hydrochloride] |  | + (LOQ ≤ + <5%) | + (LOQ ≤ + <5%) | + (LOQ ≤ + <5%) | + (LOQ ≤ + <5%) | ++ (5% ≤ ++ <25%) |  | ++ (5% ≤ ++ <25%) |  | ++ (5% ≤ ++ <25%) |  | A (≤3 mpk) | +++ (25% ≤ +++ <50%) | ++ (5% ≤ ++ <25%)
